Measurements from publication PMC12670160, “A drug-repurposing screen of FDA- and EMA-approved drugs identifies two NF-κB inhibitors active against eumycetoma” (Journal of Antimicrobial Chemotherapy, 2025).
In brackets after ≈: the same amount, converted by molar mass. Counter-ions that a name gives are not always drawn.

test system: M. mycetomatis strain P1; assay: IC50 and MIC determination, CellTiter-Glo, strain P1; format: cell-based, Madurella mycetomatis; conditions: Madurella mycetomatis, P1

Compound | MIC | IC50
Clc1ccccc1C(c1ccccc1)(c1ccccc1)n1ccnc1 [Clotrimazole] | 1 µM (≈ 0.345 µg/mL) | –
Fc1ccc(C(c2ccccc2)(c2ccccc2F)n2ccnc2)cc1 (centres unmarked) [Flutrimazole] | 0.5 µM (≈ 0.173 µg/mL) | 0.37 µM

test system: M. mycetomatis strain mm55; assay: not given; conditions: m. mycetomatis hyphae, 96 h, 2 µM

Compound | % viability
O=C(O)C[C@H]1CC[C@H](c2ccc(-c3ccc(Nc4ccc(C(F)(F)F)nc4)cn3)cc2)CC1 [ONC0001945, pradigastat] | 103.8%
CC(=O)Oc1ccccc1C(=O)Nc1ncc([N+](=O)[O-])s1 [ONC0002436, nitazoxanide] | 87.75%
CC1(C)CN(C(=O)c2ccc(-c3cccc4nc(NC(=O)C5CC5)nn34)cc2)C1 [ONC0001278, solcitinib] | 60.54%
c1ccc2oc(C3=NCCN3)cc2c1 [ONC0002719, 2bfi] | 76.35%
CC(C)OC(=O)C(C)NP(=O)(COC(C)Cn1cnc2c(N)ncnc21)Oc1ccccc1 (centres unmarked) [ONC0004548, tenofovir alafenamide gs7340] | 45.02%
CC[C@@](C)(Nc1ccnc(-c2c[nH]c3ncccc23)n1)C(=O)NCC(F)(F)F [ONC0001022, decernotinib] | 66.72%
NC(=O)c1ccc(N(C(N)=O)c2c(F)cccc2F)nc1-c1ccc(F)cc1F [ONC0004787, vx702] | 67.05%
CC[C@@]1(O)C(=O)OCc2c1cc1n(c2=O)Cc2cc3cc(O)ccc3nc2-1 [ONC0005199, 10hydroxycamptothecin] | 143.5%
Cc1cc(Nc2cc(N3CCN(C)CC3)nc(Sc3ccc(NC(=O)C4CC4)cc3)n2)[nH]n1 [ONC0004696, vx680 mk0457 tozasertib] | 120.2%
CCOP(=S)(OCC)Oc1cc(C)nc(C(C)C)n1 [ONC0003874, dimpylate] | 60.75%
CCCC(C)C1(CC)C(=O)NC(=S)NC1=O (centres unmarked) [ONC0001983, thiopental] | 75.11%
CC(C)NCCCn1c(Sc2cc3c(cc2I)OCO3)nc2c(N)ncnc21 [ONC0002276, puh71] | 67.16%
CC(C)CN(C[C@@H](O)[C@H](Cc1ccccc1)NC(=O)O[C@H]1CCOC1)S(=O)(=O)c1ccc(N)cc1 [ONC0003406, amprenavir] | 51.58%
Cc1sc2c(c1C)C(c1ccc(Cl)cc1)=N[C@@H](CC(=O)Nc1ccc(O)cc1)c1nnc(C)n1-2 [ONC0005184, otx015] | 99.78%
O=C(O)CCCc1ccc(N(CCCl)CCCl)cc1 [ONC0000730, chlorambucil] | 84.26%
CCO[C@H]1OC(=O)C[C@@H]1NC(=O)[C@@H]1CCCN1C(=O)[C@@H](NC(=O)c1ccc(N)c(Cl)c1)C(C)(C)C [ONC0004605, belnacasan vx765] | 74.26%
CC(C)(O)CNc1nc(Nc2ccnc(C(F)(F)F)c2)nc(-c2cccc(C(F)(F)F)n2)n1 [ONC0001138, enasidenib] | 67.01%
COC(=O)[C@@H]1C[C@H](OC(C)=O)C(=O)[C@H]2[C@@]1(C)CC[C@H]1C(=O)O[C@H](c3ccoc3)C[C@]21C [ONC0003459, salvinorin a] | 35.37%
CC(C)(C)c1cc(C(C)(C)C)c(NC(=O)c2c[nH]c3ccccc3c2=O)cc1O [ONC0004880, ivacaftor vx770] | 126.9%
CCN(CC)C(C)C(=O)c1ccccc1 (centres unmarked) [ONC0002292, amfepramone] | 71.71%
COc1cc2c(c(OC)c1OC)-c1ccc(OC)c(=O)cc1[C@@H](NC(C)=O)CC2 [ONC0000317, colchicine] | 73.45%

Compound | % viability
CC[C@H]1OC(=O)[C@H](C)[C@@H](O[C@H]2C[C@@](C)(OC)[C@@H](O)[C@H](C)O2)[C@H](C)[C@@H](O[C@@H]2O[C@H](C)C[C@H](N(C)C)[C@H]2O)[C@](C)(O)C[C@@H](C)[C@@H]2N[C@@H](COCCOC)O[C@H]([C@H]2C)[C@]1(C)O [ONC0005551, dirithromycin] | 98.9%
O=c1ncn2nc(Sc3ccc(F)cc3F)ccc2c1-c1c(Cl)cccc1Cl [ONC0004865, vx745] | 118.9%
CC(C)(C)C#Cc1cc(N(C(=O)[C@H]2CC[C@H](C)CC2)[C@H]2CC[C@@H](O)CC2)c(C(=O)O)s1 [ONC0004853, lomibuvir vx222 vch222] | 92.92%
CS[C@H]1SC[C@H]2C(=O)N(C)[C@@H](C(C)C)C(=O)OC[C@@H](NC(=O)c3cnc4ccccc4n3)C(=O)N[C@@H](C)C(=O)N(C)[C@@H]1C(=O)N(C)[C@@H](C(C)C)C(=O)OC[C@@H](NC(=O)c1cnc3ccccc3n1)C(=O)N[C@@H](C)C(=O)N2C [ONC0004195, echinomycin] | 114.7%
O=C(O)[C@]1(Cc2cccc(Nc3nccs3)n2)CC[C@@H](Oc2cccc(Cl)c2F)CC1 [ONC0005246, mk5108 vx689] | 132.5%
Cc1ccc(NC(=O)C2(c3ccc4c(c3)OC(F)(F)O4)CC2)nc1-c1cccc(C(=O)O)c1 [ONC0004867, vx809 lumacaftor] | 108.5%
COc1cc(NC(=O)Nc2cccc(CNC(=O)O[C@H]3CCOC3)c2)ccc1-c1cnco1 [ONC0001842, merimepodib] | 78.29%
O=P1(N(CCCl)CCCl)NCCCO1 (centres unmarked) [ONC0000336, cyclophosphamide] | 62%
C[N+]12CCC(CC1)C(OC(=O)C(O)(c1ccccc1)c1ccccc1)C2 (centres unmarked) [ONC0000315, clidinium bromide] | 88.97%
COc1cccc([C@]2(O)CCCC[C@H]2CN(C)C)c1 [ONC0004178, tramadol hydrochloride] | 135.3%
CC(C)(CO)c1cc2cc(NC(=O)C3(c4ccc5c(c4)OC(F)(F)O5)CC3)c(F)cc2n1C[C@@H](O)CO [ONC0004399, vx661] | 112.4%
Cn1c(=O)n(-c2ccc(C(C)(C)C#N)cc2)c2c3cc(-c4cnc5ccccc5c4)ccc3ncc21 [ONC0005249, dactolisib bez235 nvpbez235] | 133.4%
O=C(Nc1nc2cccc(-c3ccc(CN4CCS(=O)(=O)CC4)cc3)n2n1)C1CC1 [ONC0001023, filgotinib] | 70.26%
CC(C)(C)c1ccc(-c2nc3ccccc3[nH]2)cc1 [ONC0004834, zln005] | 87.04%
CCC1/C=C(\C)CC(C)CC(OC)C2OC(O)(C(=O)C(=O)N3CCCCC3C(=O)OC(/C(C)=C/C3CCC(O)C(OC)C3)C(C)C(O)CC1=O)C(C)CC2OC (centres unmarked) [ONC0004338, ascomycin fk520] | 150.4%
Cc1cnc(Nc2ccc(F)cc2Cl)nc1-c1c[nH]c(C(=O)N[C@H](CO)c2cccc(Cl)c2)c1 [ONC0005411, vx11e] | 117%
CCC(=O)O[C@@H]1CC(=O)O[C@H](C)C/C=C/C=C/[C@H](O)[C@H](C)C[C@H](CC=O)[C@H](O[C@@H]2O[C@H](C)[C@@H](O[C@H]3C[C@@](C)(O)[C@@H](OC(=O)CC)[C@H](C)O3)[C@H](N(C)C)[C@H]2O)[C@H]1OC [ONC0000323, midecamycin] | 88.92%
COc1ccc2c(O[C@@H]3C[C@H]4C(=O)N[C@]5(C(=O)NS(=O)(=O)C6CC6)C[C@H]5/C=C\CCCCN(C)C(=O)[C@@H]4C3)cc(-c3nc(C(C)C)cs3)nc2c1C [ONC0000991, simeprevir] | 85.85%
CNCc1ccc(-c2cc(-c3nc(-c4ccc(S(=O)(=O)C(C)C)cc4)cnc3N)on2)cc1 [ONC0005048, ve822] | 77.72%
CCC[C@H](NC(=O)[C@@H]1[C@H]2CCC[C@H]2CN1C(=O)[C@@H](NC(=O)[C@@H](NC(=O)c1cnccn1)C1CCCCC1)C(C)(C)C)C(=O)C(=O)NC1CC1 [ONC0004652, telaprevir vx950] | 71.4%

same assay, conditions: primary screen, metabolic activity vs growth control; 96 h, 2 µM; inhibitor

Compound | % viability
gonadorelin acetate [ONC0002245] | 141.9%

test system: M. mycetomatis strain I1; assay: IC50 and MIC determination, CellTiter-Glo, strain I1; format: cell-based, Madurella mycetomatis; conditions: Madurella mycetomatis, I1

Compound | MIC | IC50
Clc1ccccc1C(c1ccccc1)(c1ccccc1)n1ccnc1 [Clotrimazole] | 0.5 µM (≈ 0.172 µg/mL) | –
Fc1ccc(C(c2ccccc2)(c2ccccc2F)n2ccnc2)cc1 (centres unmarked) [Flutrimazole] | 0.5 µM (≈ 0.173 µg/mL) | 0.42 µM

test system: M. mycetomatis; assay: In vitro susceptibility, averages over M. mycetomatis isolates (average metabolic activity at 2 µM, mean MIC); format: cell-based; conditions: Madurella mycetomatis, 96 h, 4 days at 37°C, CellTiter-Glo, average of 3 isolates, 20% or below = inhibition
Procedure: M. mycetomatis isolate MM55 was used to screen the Oncode library. This strain was kindly provided by Prof. […] The three M. mycetomatis isolates were identified by ITS sequencing and maintained at −80°C at Erasmus MC. Prior to in vitro screening, isolates were cultured on Sabouraud agar plates (BD, Erembodegem, Belgium) at 37°C.
The Oncode Drug Repurposing library was based on the drug repurposing library from the Drug Repurposing Hub of the Broad Institute and recreated by the Oncode institute.[13] […] Each well of the 384-well plates contained 0.6 µL of a 200 µM stock concentration of compound, resulting in a final concentration of 2 µM when the fungus was added. […] Furthermore, this concentration could also be reached in the G. mellonella larvae.[8],[11] The prepared 384-well plates were transferred on dry ice to the Erasmus MC and stored at −80°C until they were screened.
Each plate also contained a growth control (60 µL of M. mycetomatis hyphal suspension, plus 0.6 µL of DMSO) and a negative control (60 µL of culture medium, plus 0.6 µL of DMSO). Plates were then incubated for 4 days at 37°C, after which 30 µL of CellTiter-Glo 3D Cell Viability reagent was added to every well.[19] After 25 min of incubation at room temperature, the luminescence was measured with a CytoFluor Series 4000 luminometer (PerSeptive Biosystems, Framingham, MA, USA). To determine the metabolic activity, the following formula was used:
Percentagemetabolicactivity=(Absorbancetestluminensence−AbsorbanceNCluminensence/AbsorbanceGCluminensence−AbsorbanceNCluminensence)×100
where, GC is growth control and NC is negative control. The luminescence measured for the GC is considered as 100% metabolic activity. The luminescence for the NC is considered as 0% metabolic activity.

Compound | activity at 2 µM
Clc1ccccc1C(c1ccccc1)(c1ccccc1)n1ccnc1 [Clotrimazole] | 4%
Fc1ccc(C(c2ccccc2)(c2ccccc2F)n2ccnc2)cc1 (centres unmarked) [Flutrimazole] | 0%

test system: M. mycetomatis strain mm55; assay: IC50 and MIC determination, CellTiter-Glo, strain mm55; format: cell-based, Madurella mycetomatis; conditions: Madurella mycetomatis, concentration inhibiting 50% of fungal hyphae growth

Compound | IC50
Fc1ccc(C(c2ccccc2)(c2ccccc2F)n2ccnc2)cc1 (centres unmarked) [Flutrimazole] | 0.92 µM

same assay, conditions: Madurella mycetomatis, concentration with complete growth inhibition

Compound | MIC
Clc1ccccc1C(c1ccccc1)(c1ccccc1)n1ccnc1 [Clotrimazole] | 1 µM (≈ 0.345 µg/mL)
Fc1ccc(C(c2ccccc2)(c2ccccc2F)n2ccnc2)cc1 (centres unmarked) [Flutrimazole] | 2 µM (≈ 0.693 µg/mL)
